Assay results as given in US6821986B2, “Amino acid derivatives and their use as medicines” (Societe de Conseils de Recherchet et E'Applications …, priority 2000, dated 2004).

Key:
[1] = system: HT-22 cells; test: Protection of HT-22 cells from oxidation stress induced by glutamate (MTT viability); assay type: cell-based; conditions: Mus musculus, glutamate 5 mM, cell viability after 24 h by MTT
Protocol: Study of the Effects on the Oxidation Stress Induced by Glutamate on Cells in Culture (HT-22).
The inhibitory activity of the products of the invention is determined by measuring their ability to protect the cells of a mouse hippocampal line (HT-22) from an oxidation stress caused by glutamate. The biosynthesis of glutathione, an essential element of cell detoxification of free radicals, requires the active transport of cystine to the interior of the cell. The glutamate by opposing the penetration of cystine causes a reduction in the level of glutathione which leads to the death of the cell due to oxidation stress (Demerlé-Pallardy, C. et al., J. Neurochem. (2000) 74, 2079-2086; Murphy, T. H. et al., Neuron, (1989) 2: 1547-1558). The cells are cultured at 37° C. in a DMEM medium with 10% of foetal calf serum added to it. The tests are carried out in 96-well plates containing 5000 cells per well. The glutamate (5 mM) is added to the medium containing or not containing the products to be tested. The cell viability is tested after 24 h by the MTT method (Hansen, M. B. et al., J Immunol. Methods (1989), 119, 203-210). The ability of the compounds to protect the cells from the toxic action of the glutamate is estimated in EC50, calculated relative to the viability of cells which have not been subjected to the action of glutamate considered as 100% viability.

[2] = target: T1, neuronal constitutive NO synthase (Rattus norvegicus, UniProt P29476); test: Effects on neuronal constitutive NO synthase of a rat's cerebellum ([3H]L-arginine to [3H]L-citrulline conversion); assay type: biochemical; conditions: rat cerebellum homogenate, conversion of [3H]L-arginine to [3H]L-citrulline, 15 min
T1 construct: The reaction is initiated by adding 50 μl of homogenate; from tissue; host or cells: cerebellum of Sprague-Dawley rats (homogenate, centrifuged at 21000 g)
Protocol: Study of the Effects on Neuronal Constitutive NO Synthase of a Rat's Cerebellum
The inhibitory activity of the products of the invention is determined by measuring their effects on the conversion by NO synthase of [^3H]L-arginine to [^3H]L-citrulline according to the modified method of Bredt and Snyder (Proc. Natl. Acad. Sci. USA, (1990) 87: 682-685). The cerebellums of Sprague-Dawley rats (300 g-Charles River) are rapidly removed, dissected at 4° C. and homogenized in a volume of extraction buffer (HEPES 50 mM, EDTA 1 mM, pH 7.4, pepstatin A […], leupeptin […]). The homogenates are then centrifuged at 21000 g for 15 min at 4° C. Dosage is carried out in glass test tubes in which 100 μl of incubation buffer containing 100 mM of HEPES (pH 7.4), 2 mM of EDTA, 2.5 mM of CaCl2, 2 mM of dithiotreitol, 2 mM of reduced NADPH and 10 μg/ml of calmodulin are distributed. 25 μl of a solution containing 100 nM of [^3H]L-arginine (Specific activity: 56.4 Ci/mmole, Amersham) and 40 μM of non-radioactive L-arginine is added. The reaction is initiated by adding 50 μl of homogenate, the final volume being 200 μl (the missing 25 μl are either water or the tested product). […] After passing the samples through a 1 ml column of DOWEX resin, the radioactivity is quantified by a liquid scintillation spectrometer.

IC50 [2] [µM]	Compound	EC50 [1] [µM]
< 10	N=C(NCCC[C@H](N)C(=O)Nc1ccc(Nc2ccccc2)cc1)N[N+](=O)[O-] [Example 1, (2S)-2-amino-N-(4-anilinophenyl)-5-{[imino(2-oxido-2-oxohydrazino)methyl]amino}pentanamide]	< 25
< 10	CN1CCc2cc(NC(=O)[C@@H](N)CCCNC(=N)N[N+](=O)[O-])ccc21 [Example 2, (2S)-2-amino-5-{[imino(2-oxido-2-oxohydrazino)methyl]amino}-N-(1-methyl-2,3-dihydro-1H-indol-5-yl)pentanamide]	< 25
